“Also recorded” adds a separate entry of the source. Where two headings read alike, the source gives them in different places.
Columns and labels:
[1] = system: Splenic T-cells stimulated with ionomycin + PMA; assay: T-cell proliferation assay (ionomycin plus PMA induced T-cell stimulation assay); assay type: cell-based, mouse
Method: Cells were pelleted by centrifugation at 1500 rpm for 8 minutes. Contaminating red cells were removed by treating the pellet with ammonium chloride lysing buffer (GIBCO) for 2 minutes at 4° C. Cold medium was added and cells were again centrifuged at 1500 rpm for 8 minutes. T lymphocytes were then isolated by separation of the cell suspension on nylon wool columns as follows: Nylon wool columns were prepared by packing approximately 4 grams of washed and dried nylon wool into 20 ml plastic syringes. The columns were sterilized by autoclaving at 250° F. for 30 minutes. Nylon wool columns were wetted with warm (37° C.) culture medium and rinsed with the same medium. Washed spleen cells resuspended in warm medium were slowly applied to the nylon wool. The columns were then incubated in an upright position at 37° C. for 1 hour. Non-adherent T lymphocytes were eluted from the columns with warm culture medium and the cell suspensions were spun as above.
The cell suspension was immediately distributed into 96 well flat-bottom microculture plates (Costar) at 200 μl/well. […] The proliferation of T lymphocytes was assessed by measurement of tritiated thymidine incorporation. After 44 hours of culturing, the cells were pulse-labelled with 2 μCi/well of tritiated thymidine (NEN, Cambridge, Mass.). After another 4 hours of incubation, cultures were harvested on glass fiber filters using a multiple sample harvester. Radioactivity of filter discs corresponding to individual wells was measured by standard liquid scintillation counting methods (Betacounter). Mean counts per minute of replicate wells were calculated and the results expressed as percent inhibition of tritiated thymidine uptake (proliferation) as follows: [formula]

[2] = biological target: T1, 31-O-desmethylimmunomycin O-methyltransferase (DIMT) (Streptomyces hygroscopicus, UniProt Q9KID5); assay: S-adenosyl-L-methionine: 31-O-desmethylimmunomycin O-methyltransferase (DIMT) assay; assay type: biochemical, Streptomyces hygroscopicus var. ascomyceticus
T1 construct: cell-free extract, DEAE-Sepharose pool, or second MonoQ preparation (kinetics)
T1 sequence (Q9KID5 1-260): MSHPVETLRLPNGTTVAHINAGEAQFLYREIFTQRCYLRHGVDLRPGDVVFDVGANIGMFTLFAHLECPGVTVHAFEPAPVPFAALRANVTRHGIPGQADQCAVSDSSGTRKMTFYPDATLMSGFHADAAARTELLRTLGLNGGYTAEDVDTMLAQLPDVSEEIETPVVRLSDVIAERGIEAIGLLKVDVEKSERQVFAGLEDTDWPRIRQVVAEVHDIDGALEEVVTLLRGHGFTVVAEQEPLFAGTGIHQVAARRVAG
Method: The assay was carried out in 1 ml. mixture containing 0.025 mM 31-desmethylimmunomycin, 1 mM MgSO4 and different quantities of the enzyme source in 50 mM phosphate buffer, pH 7.5. Reaction was initiated by the addition of 1 nmole of ^14 C-SAM (S-adenosyl-L-[methyl-^14 C] methionine with the specific activity of 46 mCi/mmole. Incubation of the complete mixture was carried out at 34° C. for 20 minutes and the reaction was terminated by the addition of ethyl acetate. Product of the reaction was extracted with 2 ml of ethyl acetate and 1 ml of the extract was used for TLC and HPLC analysis. For the analysis of the radioactive reaction product (immunomycin), the ethyl acetate extract was spiked with the standard immunomycin and subjected to the TLC with a plate having plastic support. The plastic sheet was developed in chloroform:methanol (9:1) and area showing standard immunomycin under UV-light was cut and the radioactivity in the cut-strip was measured. The amount of the product formed was calculated from the measured radioactivity. For the HPLC analysis of the product of the enzyme reaction, several enzymatic reaction mixtures were pooled and the extract was subjected to the TLC analysis as above. The area on the silica gel plate showing the band having an Rf value identical with the standard immunomycin was scraped and eluted with ethyl acetate. The ethyl acetate extract was washed with water, dried under nitrogen and the residue was subjected to the HPLC analysis on Partisil 5-ODS-3 column with acetonitrile:water:phosphoric acid (65:35:0.1) as the eluting solvent. One milliliter fractions were collected and a portion of each fraction was examined for the radioactivity.
Examination of the optimal temperature, pH and metal requirement of the DIMT activity was carried out on the enzyme preparation obtained from DEAE-Sepharose column. For kinetic analysis, a preparation which had been purified through a second MonoQ column chromatography was utilized.

Row | Inhibition of DIMT activity (result in words) [2] | SMILES | Inhibition of T-cell activation (result in words) [1] | Inhibition of DIMT activity (result in words) ([2]; crude extract) | other results
1 | – | CC[C@@H]1C=C2COC1(O)C[C@H](O)[C@@H](C)[C@@H](/C(C)=C/[C@@H]1CC[C@@H](O)[C@H](O)C1)OC(=O)[C@@H]1CCCCN1C(=O)C(=O)[C@]1(O)O[C@H]([C@@H](OC)C[C@@H](C)C2)[C@@H](OC)C[C@H]1C [Compound I] | positive inhibition of T-cell activation | – | Activity versus the FK-506 immunosuppressive activity (result in words) [1]: antagonist activity; Reversal of inhibition of T-cell proliferation by IL2 ([1]; 50 units/ml recombinant IL2 added at the initiation of culture): reversed; IC50 ([1]; Mus musculus, T-cell, general range, read-out: IC50, generally in the range): 0.01 to 0.018 µM
2 | major inhibition | Nc1ncnc2c1ncn2[C@@H]1O[C@H](CSCC[C@H](N)C(=O)O)[C@@H](O)[C@H]1O [S-adenosyl-homocysteine (SAH), S-adenosyl-homocysteine] | – | – | –
3 | – | CC[C@@H]1C=C2COC1(O)C[C@H](O)[C@@H](C)[C@@H](/C(C)=C/[C@@H]1CC[C@@H](O)[C@H](OC)C1)OC(=O)[C@@H]1CCCCN1C(=O)C(=O)[C@]1(O)O[C@H]([C@@H](OC)C[C@@H](C)C2)[C@@H](OC)C[C@H]1C [Compound II] | positive inhibition of T-cell activation; also recorded: positive results | – | –
4 | major inhibition | Nc1ncnc2c1ncn2[C@@H]1O[C@H](C[C@@H](N)CC[C@H](N)C(=O)O)[C@@H](O)[C@H]1O [sinefungin] | – | – | –
5 | – | N.N.O=S(=O)(O)O [ammonium sulfate] | – | inhibited | –

Row | SMILES | Inhibition of DIMT activity (result in words) [2] | Inhibition of T-cell activation (result in words) [1] | Inhibition of DIMT activity (result in words) ([2]; crude extract) | other results
6 | O=C(O)CN(CCN(CC(=O)O)CC(=O)O)CC(=O)O [EDTA] | major inhibition | – | completely inhibited | –

— patent US5273979A, “C-31 desmethyl FR-900520 cyclic hemiketal immunosuppressant agent” (Merck & Co., Inc., priority 1991, dated 1993)
